# Laboratory results published in patent publication US20130096159A1, “INHIBITORS OF HUMAN 12-LIPOXYGENASE” (The United States of America, as represented the Secretary …, priority 2010, published 2013).
# Assays:
# Format in all cases: cell-based
# Human islets = test: gene expression in cytokine-stimulated human islets, Taqman real time PCR; conditions: TNF-α
# Method: Human islets were incubated for 22 hours following stimulation with the inflammatory cytokines IFN-γ, TNF-α, and IL-1-β alone or in the presence of compound 1 or compound 9. Control islets were incubated for 22 hours in the absence of inflammatory cytokines or compounds. Following the incubation, gene expression for 12-LO, 15-LO, 5-LO, IL-12p40, and IFN-γ were determined using Taqman real time PCR.
# [1] = system: P-selectin on the surface of human platelets; test: α-granule secretion, P-selectin expression by flow cytometry; conditions: vs agonists alone (thrombin, PAR1-AP, PAR4-AP, ADP); FIG. 4
# Method: (§1) Human platelets were obtained from healthy volunteers from within the Thomas Jefferson University community and the Philadelphia area. These studies were approved by the Thomas Jefferson University Institutional Review Board. Informed consent was obtained from all donors before blood draw. Blood was centrifuged at 200 g for 15 min at room temperature. Platelet-rich plasma was transferred into a conical tube containing a 10% acid citrate dextrose solution (39 mM citric acid, 75 mM sodium citrate, and 135 mM glucose, pH 7.4) and centrifuged at 2000 g for 15 min at room temperature. Platelets were resuspended in Tyrode's buffer (12 mM NaHCO3, 127 mM NaCl, 5 mM KCl, 0.5 mM NaH2PO4, 1 mM MgCl2, 5 mM glucose, and 10 mM HEPES), and the final platelet concentration was adjusted as indicated after counting using a Coulter counter (Beckman Coulter, Fullerton, Calif.). Reported results are the data obtained using platelets from at least three different subjects.
# Washed platelets were obtained as described in Example 10. Flow cytometry was used to measure the secretion of α-granules. Specifically, P-selectin expression was used to detect α-granule secretion. […] The fluorescence intensity of 10,000 platelets was immediately measured using a C6 Accuri flow cytometer. […]
# human platelets = test: platelet aggregation in response to agonists, light transmission aggregometry; conditions: agonists thrombin, arachidonic acid, PAR1-AP, PAR4-AP, ADP, collagen; 10 min pretreatment; FIG. 2
# Method: as §1
# Washed platelets were obtained as described in Example 10. […] Platelets were pretreated with compound 1 for 10 min and aggregation in response to stimulation by the agonists thrombin, PAR1-AP, PAR4-AP, ADP and collagen at various agonist concentrations was measured via the light transmission aggregometry method using a lumi-aggregometer model 700D (Chrono-log Corp., Havertown, Pa.) with stirring at 1100 rpm at 37° C. […]
# [2] = relative to control islets, IFN-γ, IL-1-β stimulation, 22 hours
smiles,measurement,setting,value
"CCC(=O)NC(c1cccs1)c1cc([N+](=O)[O-])c2cccnc2c1O (stereo not drawn) [Compound 1, N-((8-hydroxy-5-nitroquinolin-7-yl)(thiophen-2-yl)methyl)propionamide]",reduction in IFN-γ expression,"Human islets; induced by IFN-γ, IL-1-β",4 fold
same,reduction in IL-12p40 mRNA expression,"Human islets; induced by IFN-γ, IL-1-β",40 fold
same,Change in Gene Expression 5-LO,Human islets; [2],1
same,Change in Gene Expression 12-LO,Human islets; [2],13
same,Change in Gene Expression 15-LO,Human islets; [2],1
same,Change in Gene Expression IFN-γ,Human islets; [2],25
same,Change in Gene Expression IL-12p40,Human islets; [2],3
same,expression of P-selectin on the surface of the platelets,[1],decreased expression of P-selectin
same,dose response curves for platelet aggregation,human platelets,substantially unaffected
